Assay results reported in patent US7317038B2, “Nerve regeneration promoters containing semaphorin inhibitor as the active ingredient” (Dainippon Sumitomo Pharma Co., Ltd., priority 2000, dated 2008).
Entries after “also recorded” stand apart in the source; their conditions may differ.

Key:
Sema3A = target: T1, Sema3A (Mus musculus, UniProt O08665); test: Collagen gel co-culture: suppression of neurite outgrowth inhibitory action of Sema3A; type: cell-based; parameters: key to suppression of neurite outgrowth inhibitory activity of Sema3A, score / inhibition of neurite outgrowth-inhibitory action of Sema3A, score: neurites outgrew in a complete concentric circular shape just like for the control groups where Sema3A-non-expressing COS7 cells were used, it was scored +++ (a strong inhibitory effect for Sema3A); outgrowth was found almost in a concentric circular shape accompanied with a little suppression of the outgrowth toward the direction of Sema3A-expressing COS cells, it was scored ++; outgrowth toward the direction of Sema3A-expressing COS cells is fairly suppressed to present a crescent shape, it was scored +; outgrowth toward the direction of Sema3A-expressing COS cells was not found at all (no inhibitory effect for Sema3A), it was scored −; conditions: for suppression of neurite outgrowth inhibitory activity of Sema3A, score: Example 5
T1 construct: expressed in transfected cells; host or cells: COS7
T1 sequence (O08665 21-772): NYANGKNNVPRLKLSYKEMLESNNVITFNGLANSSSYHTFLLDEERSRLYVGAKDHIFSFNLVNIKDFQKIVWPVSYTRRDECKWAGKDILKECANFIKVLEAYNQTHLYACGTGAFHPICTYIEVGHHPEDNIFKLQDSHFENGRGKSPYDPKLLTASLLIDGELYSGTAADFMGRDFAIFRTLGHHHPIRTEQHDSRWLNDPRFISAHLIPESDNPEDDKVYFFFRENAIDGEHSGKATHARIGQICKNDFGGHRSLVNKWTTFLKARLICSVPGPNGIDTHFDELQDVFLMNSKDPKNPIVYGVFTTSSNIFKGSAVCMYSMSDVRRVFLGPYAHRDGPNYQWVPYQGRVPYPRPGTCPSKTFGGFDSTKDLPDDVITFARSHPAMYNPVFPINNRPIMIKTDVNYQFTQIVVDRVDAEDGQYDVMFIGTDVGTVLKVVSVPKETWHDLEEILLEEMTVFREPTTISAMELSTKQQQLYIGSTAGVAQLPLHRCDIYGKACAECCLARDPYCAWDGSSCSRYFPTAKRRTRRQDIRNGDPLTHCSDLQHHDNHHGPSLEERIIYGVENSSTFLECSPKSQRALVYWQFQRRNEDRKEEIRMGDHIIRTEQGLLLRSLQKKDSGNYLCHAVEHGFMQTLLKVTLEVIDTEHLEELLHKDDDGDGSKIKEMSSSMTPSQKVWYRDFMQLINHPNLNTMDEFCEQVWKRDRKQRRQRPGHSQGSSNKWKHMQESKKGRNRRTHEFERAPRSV
Description: Whether the object compounds (SPF-3059-1, M162, A721) have persistent inhibitory action to Sema3A was analyzed by the collagen gel co-culture method (Neuroprotocols 4, 116, 1994) using Sema3A-expressing COS7 cell clumps and 7- or 8-day-old chick embryo dorsal root ganglions. The Sema3A-expressing COS7 cell clumps were generated as follows. 1 μg of Sema3A-expression plasmid was introduced into COS7 cells (100000 cells/35 mm culture plate), which were cultured overnight, with the FuGENE6 transfection reagent (Roche). 2.5 hours after the starting of the transfection, the COS7 cells were collected by trypsinization and centrifugation, and re-suspended in a medium of 200 μl. 20 μl of the cell suspension was placed on the lid of the culture plate (inside) and the lid was turned over, and then the suspension was cultivated for 20 hours (hanging drop culture) (Cell 78, 425, 1994). When the culture was over, aggregated COS7 cells (clump) were collected and trimmed to a diameter of 0.5 mm. The Sema3A-expressing COS7 cell clump and the above-mentioned dorsal root ganglions were placed in parallel at a distance of 0.5 to 1 mm in a 0.2% collagen gel which was then cultivated in a medium containing the aforementioned compounds at various concentrations for 2 days at 37° C. under 5% CO2. Glutaraldehyde was quickly added therein to make the final concentration 1%. The cultures were then left for 1 hour at room temperature so that the tissues were fixed, and the neurite outgrowth was microscopically observed. The results are found in FIG. 4.
When a medium not containing a subject compound was used, neurites were unable to grow towards the COS7 cell clump with the high concentration of Sema3A and grew only to the opposite direction.
In a similar way as in Example 4, suppression of the neurite outgrowth inhibitory activity was analyzed for the compounds, SPF-3059-1, SPF-3059-2 and SPF-3059-5. When the neurites outgrew in a complete concentric circular shape just like for the control groups where Sema3A-non-expressing COS7 cells were used, it was scored +++ (a strong inhibitory effect for Sema3A). When the outgrowth was found almost in a concentric circular shape accompanied with a little suppression of the outgrowth toward the direction of Sema3A-expressing COS cells, it was scored ++. […] When the outgrowth toward the direction of Sema3A-expressing COS cells was not found at all (no inhibitory effect for Sema3A), it was scored −.

[1] = target: T2, rat semaphorin 6C-AP (Sema6C-AP) (Rattus norvegicus, UniProt Q9WTL3); test: Suppression of growth cone collapse activity of Sema6C-AP (chick embryo dorsal root ganglions); type: cell-based
T2 construct: a fusion protein of extracellular domain of Sema6C and human placenta-derived alkaline phosphatase
T2 sequence (Q9WTL3 24-635 limits assumed): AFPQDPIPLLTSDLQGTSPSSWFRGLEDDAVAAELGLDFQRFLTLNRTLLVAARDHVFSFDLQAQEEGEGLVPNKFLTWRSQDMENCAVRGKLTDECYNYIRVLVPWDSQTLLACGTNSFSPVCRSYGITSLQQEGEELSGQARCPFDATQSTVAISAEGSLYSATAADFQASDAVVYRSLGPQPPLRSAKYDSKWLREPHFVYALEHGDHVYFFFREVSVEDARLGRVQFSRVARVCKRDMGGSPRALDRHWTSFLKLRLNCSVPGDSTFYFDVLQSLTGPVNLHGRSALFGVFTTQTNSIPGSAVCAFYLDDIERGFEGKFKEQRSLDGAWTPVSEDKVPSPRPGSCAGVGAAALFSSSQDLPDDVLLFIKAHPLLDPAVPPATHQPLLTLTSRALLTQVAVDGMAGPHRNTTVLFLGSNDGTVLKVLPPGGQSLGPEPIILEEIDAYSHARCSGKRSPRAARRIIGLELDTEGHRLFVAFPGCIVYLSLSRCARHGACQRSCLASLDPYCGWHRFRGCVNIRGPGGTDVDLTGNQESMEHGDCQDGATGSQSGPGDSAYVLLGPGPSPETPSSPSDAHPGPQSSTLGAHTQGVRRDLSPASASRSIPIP
Description: The experiment was carried out in a same way as in Example 2 except that rat semaphorin 6C-AP (Sema6C-AP: a fusion protein of extracellular domain of Sema6C and human placenta-derived alkaline phosphatase) was used instead of mouse semaphorin 3A (Sema3A), and dorsal root ganglions excised from 8-day-old chick embryos were used instead of those excised from 7-day-old chick embryos. The collapse rate of growth cone was measured when Sema6C-AP was added one hour after the addition of the compound SPF-3059-1 at various concentrations.

suppression of neurite outgrowth inhibitory activity of Sema3A, score (Sema3A; 0.5 μg/ml compound): + | suppression of neurite outgrowth inhibitory activity of Sema3A, score (Sema3A; 1.0 μg/ml compound): ++ | suppression of neurite outgrowth inhibitory activity of Sema3A, score (Sema3A; 2.0 μg/ml compound): +++ | collapse rate of growth cones, compound alone ([1]; Sema6C-AP not added): did not affect the rate at all
Compound: CC(=O)c1c(C)c(C(=O)C2COc3cc(O)c(O)c(C(=O)O)c3C2=O)cc2c(=O)c3c(C(=O)O)c(O)c(O)cc3oc12 (stereo not drawn) [SPF-3059-1]
persistent inhibitory action to Sema3A (neurite outgrowth toward Sema3A-expressing COS7 cell clump) (Sema3A; collagen gel co-culture, 2 days): persistently inhibit Sema3A activities; also recorded: persistently inhibited the action of Sema3A | inhibition of growth cone collapse activity of Sema6C-AP (in words) ([1]; E8 chick embryo dorsal root ganglions, Sema6C-AP added one hour after compound): inhibit the growth cone collapse activities of Sema6C-AP in a concentration-dependent manner
